In this test the test system is P388 leukemia ip, CD2F1 mice, survival T/C. Kind of test: NCI In Vivo Anticancer Drug Screen. Data for tumor model P388 Leukemia (intraperitoneal) in CD2F1 (CDF1) mice. The conditions noted are these: endpoint: median survival time, higher = longer survival. The gist of the method:
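Mice carrying the transplanted tumor received test compound or vehicle. Survival was recorded in each group, and the value is the treated-group measurement divided by that of the vehicle-treated control group.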

Setting [1] is: dose: 60.0 mg/kg/injection, schedule: Q01DX005 (ip), vehicle: saline with Tween-80.
Where [2] appears, read: dose: 120.0 mg/kg/injection, schedule: Q01DX005 (ip), vehicle: saline with Tween-80.
The mark [3] stands for this setting: dose: 240.0 mg/kg/injection, schedule: Q01DX005 (ip), vehicle: saline with Tween-80.
The mark [4] stands for this setting: dose: 200.0 mg/kg/injection, schedule: Q01DX001 (ip), vehicle: Klucel (hydroxypropylcellulose) (HPC).
The mark [5] stands for this setting: dose: 400.0 mg/kg/injection, schedule: Q01DX001 (ip), vehicle: Klucel (hydroxypropylcellulose) (HPC).
Where [6] appears, read: dose: 50.0 mg/kg/injection, schedule: Q04DX002 (ip), vehicle: saline with Tween-80.
[7] abbreviates: dose: 50.0 mg/kg/injection, schedule: Q01DX009 (ip), vehicle: saline with Tween-80.
Where [8] appears, read: dose: 100.0 mg/kg/injection, schedule: Q01DX009 (ip), vehicle: saline with Tween-80.
Where [9] appears, read: dose: 200.0 mg/kg/injection, schedule: Q01DX009 (ip), vehicle: saline with Tween-80.
[10] abbreviates: dose: 50.0 mg/kg/injection, schedule: Q01DX005 (ip), vehicle: Klucel (hydroxypropylcellulose) (HPC).
Where [11] appears, read: dose: 100.0 mg/kg/injection, schedule: Q01DX005 (ip), vehicle: Klucel (hydroxypropylcellulose) (HPC).
Where [12] appears, read: dose: 200.0 mg/kg/injection, schedule: Q01DX005 (ip), vehicle: Klucel (hydroxypropylcellulose) (HPC).

21 compounds from PubChem BioAssay AID330 (DTP/NCI, 2004) can be followed below.

Values joined by “and” are separate entries in the source; they are usually repeats but may differ in a detail not shown here. Equal values may be shown once. Inconclusive results and toxic doses are left out. Peptide text beside a SMILES is read from it.

Take `O=S(=O)(O/C(=C(\OS(=O)(=O)C(F)(F)C(F)(F)C(F)(F)C(F)(F)F)c1ccccc1)c1ccccc1)C(F)(F)C(F)(F)C(F)(F)C(F)(F)F`: the T/C is 99 % of control under setting [1], 107 % of control under setting [2] and 99 % of control under setting [3].
On to `CCCCCCCCCCCCCCCCc1c(C(=O)OC)nc(N)[nH]c1=O`, for which the T/C is, setting by setting: (dose: 3.75 mg/kg/injection, schedule: Q01DX005 (ip), vehicle: saline with Tween-80) 99 % of control; (dose: 7.5 mg/kg/injection, schedule: Q01DX005 (ip), vehicle: saline with Tween-80) 100 % of control; (dose: 15.0 mg/kg/injection, schedule: Q01DX005 (ip), vehicle: saline with Tween-80) 103 % of control.
For `O=C1C2CCC(N1c1ccc(F)cc1)n1c(=O)n(-c3ccccc3)c(=O)n12` (stereo unspecified), the T/C is, setting by setting: (dose: 100.0 mg/kg/injection, schedule: Q01DX001 (ip), vehicle: Klucel (hydroxypropylcellulose) (HPC)) 104 % of control; under setting [4], 94 % of control; under setting [5], 100 % of control.
As for `CC(=O)N=c1sccn1CC(O)c1ccccc1` (stereo unspecified), the T/C was 105 % of control (dose: 50.0 mg/kg/injection, schedule: Q01DX009 (ip), vehicle: Klucel (hydroxypropylcellulose) (HPC)); 99 % of control (dose: 100.0 mg/kg/injection, schedule: Q01DX009 (ip), vehicle: Klucel (hydroxypropylcellulose) (HPC)); 118 % of control under setting [4]; 108 % of control (dose: 200.0 mg/kg/injection, schedule: Q01DX009 (ip), vehicle: Klucel (hydroxypropylcellulose) (HPC)); 100 % of control under setting [5].
As for `COc1cc(/C=C2/C(=O)N(c3ccccc3)N=C2C)cc(OC)c1OC`, the T/C runs as follows: (dose: 60.0 mg/kg/injection, schedule: Q01DX005 (ip), vehicle: Klucel (hydroxypropylcellulose) (HPC)) 108 % of control; (dose: 120.0 mg/kg/injection, schedule: Q01DX005 (ip), vehicle: Klucel (hydroxypropylcellulose) (HPC)) 104 % of control; (dose: 240.0 mg/kg/injection, schedule: Q01DX005 (ip), vehicle: Klucel (hydroxypropylcellulose) (HPC)) 105 % of control.
In the case of `O=NN(CCF)C(=O)Oc1cc(Cl)c(Cl)cc1Cl`, the T/C is, setting by setting: (dose: 12.0 mg/kg/injection, schedule: Q01DX005 (ip), vehicle: saline with Tween-80) 170 % of control; (dose: 25.0 mg/kg/injection, schedule: Q01DX005 (ip), vehicle: saline with Tween-80) 202 % of control.
In the case of `c1ccc(-c2n[se]c(-c3ccccc3)n2)cc1`, the T/C (dose: 12.5 mg/kg/injection, schedule: Q04DX002 (ip), vehicle: saline with Tween-80) is 102 % of control; the T/C (dose: 25.0 mg/kg/injection, schedule: Q04DX002 (ip), vehicle: saline with Tween-80) is 95 % of control; the T/C under setting [6] is 93 % of control.
On to `CCOC(=S)NC(=O)c1ccccc1`, for which the T/C is, setting by setting: under setting [7], 99 % of control; under setting [8], 108 % of control; under setting [9], 100 % of control.
In the case of `NC(Cc1ccccc1)C(=O)NC(Cc1ccccc1)C(=O)O` (stereo not drawn) (H-Phe-Phe-OH; configuration not given here), the T/C reads like this: (dose: 50.0 mg/kg/injection, schedule: Q01DX009 (ip), vehicle: saline) 96 % of control; (dose: 100.0 mg/kg/injection, schedule: Q01DX009 (ip), vehicle: saline) 99 % of control; (dose: 200.0 mg/kg/injection, schedule: Q01DX009 (ip), vehicle: saline) 94 % of control.
On to `Cc1nc2ccc(Br)cc2c(=O)n1-c1ccc(-c2n[nH]c(=S)n2-c2ccccc2)cc1`, for which the T/C under setting [10] was 102 % of control, the T/C under setting [11] is 104 % of control and the T/C under setting [12] was 104 % of control.
For `COc1c2occc2c(NC(=O)C(Cl)Cl)c2ccc(=O)oc12`, the T/C by setting is: (dose: 2.5 mg/kg/injection, schedule: Q04DX002 (ip), vehicle: saline with Tween-80) 101 % of control; (dose: 5.0 mg/kg/injection, schedule: Q04DX002 (ip), vehicle: saline with Tween-80) 100 % of control; (dose: 10.0 mg/kg/injection, schedule: Q04DX002 (ip), vehicle: saline with Tween-80) 99 % of control.
For the compound `O=C1c2ccccc2CCC1Br` (stereo unspecified), the T/C was 113 % of control (dose: 1.56 mg/kg/injection, schedule: Q01DX009 (ip), vehicle: DMSO); 99 % of control and 103 % of control (dose: 6.25 mg/kg/injection, schedule: Q01DX009 (ip), vehicle: DMSO); 102 % of control (dose: 12.5 mg/kg/injection, schedule: Q01DX009 (ip), vehicle: DMSO).
Turning to `CC(C)(C)OC(=O)NCS(=O)(=O)N(Cc1ccccc1)Cc1ccccc1`, the T/C runs as follows: under setting [10], 102 % of control; under setting [11], 101 % of control; under setting [12], 97 % of control.
Regarding `O=C(O)C1C(C(=O)O)C2(Cl)C(Cl)=C(Cl)C1(Cl)C2(Cl)Cl.[Mn]` (stereo unspecified), the T/C is 95 % of control (dose: 50.0 mg/kg/injection, schedule: Q04DX003 (ip), vehicle: saline sonified) and 91 % of control (dose: 100.0 mg/kg/injection, schedule: Q04DX003 (ip), vehicle: saline sonified).
With `CCOC(=O)C(=Cc1ccccc1Cl)C(=O)OCC`, the T/C by setting is: (dose: 25.0 mg/kg/injection, schedule: Q01DX009 (ip), vehicle: saline with Tween-80) 100 % of control and 111 % of control; under setting [7], 110 % of control; under setting [8], 102 % of control and 120 % of control; under setting [9], 116 % of control.
In the case of `O=C(C[P+](c1ccccc1)(c1ccccc1)c1ccccc1)c1ccccc1`, the T/C was 105 % of control under setting [1], 108 % of control under setting [2] and 96 % of control under setting [3].
For `O=NNc1nc2ncccc2cc1-c1ccccc1Cl`, the T/C runs as follows: (dose: 3.12 mg/kg/injection, schedule: Q01DX009 (ip), vehicle: water) 110 % of control and 111 % of control and 124 % of control; (dose: 6.25 mg/kg/injection, schedule: Q01DX009 (ip), vehicle: water) 111 % of control; (dose: 12.5 mg/kg/injection, schedule: Q01DX009 (ip), vehicle: water) 108 % of control and 113 % of control; (dose: 25.0 mg/kg/injection, schedule: Q01DX009 (ip), vehicle: water) 94 % of control and 95 % of control.
As for `Nc1nc(F)nc2c1nnn2C1OC(CO)C(O)C1O` (stereo unspecified), the T/C (dose: 12.5 mg/kg/injection, schedule: Q01DX001 (ip), vehicle: saline) was 112 % of control; the T/C (dose: 25.0 mg/kg/injection, schedule: Q01DX001 (ip), vehicle: saline) is 109 % of control; the T/C (dose: 50.0 mg/kg/injection, schedule: Q01DX001 (ip), vehicle: saline) was 109 % of control; the T/C (dose: 50.0 mg/kg/injection, schedule: Q01DX005 (ip), vehicle: saline) is 121 % of control; the T/C (dose: 100.0 mg/kg/injection, schedule: Q01DX001 (ip), vehicle: saline) is 104 % of control; the T/C (dose: 100.0 mg/kg/injection, schedule: Q01DX005 (ip), vehicle: saline) is 114 % of control.
As for `CC1(C)CC23C4COC(=O)C2CCC1C3CC4=O` (stereo unspecified), the T/C (dose: 1.5 mg/kg/injection, schedule: Q01DX009 (ip), vehicle: DMSO) was 94 % of control; the T/C (dose: 3.0 mg/kg/injection, schedule: Q01DX009 (ip), vehicle: DMSO) is 107 % of control and 94 % of control; the T/C (dose: 6.0 mg/kg/injection, schedule: Q01DX009 (ip), vehicle: DMSO) is 104 % of control and 91 % of control; the T/C (dose: 12.0 mg/kg/injection, schedule: Q01DX009 (ip), vehicle: DMSO) is 88 % of control and 95 % of control; the T/C (dose: 24.0 mg/kg/injection, schedule: Q01DX009 (ip), vehicle: DMSO) was 90 % of control; the T/C (dose: 48.0 mg/kg/injection, schedule: Q01DX009 (ip), vehicle: DMSO) is 106 % of control and 91 % of control.
On to `O=c1[nH]c2n[nH]c(=S)n2c2c1CCC2`, for which the T/C runs as follows: under setting [6], 99 % of control; (dose: 100.0 mg/kg/injection, schedule: Q04DX002 (ip), vehicle: saline with Tween-80) 97 % of control; (dose: 200.0 mg/kg/injection, schedule: Q04DX002 (ip), vehicle: saline with Tween-80) 99 % of control.
In the case of `O=C1C=C(NCCCC2CCCN3CCCCC23)C(=O)c2ccccc21` (stereo unspecified), the T/C (dose: 6.25 mg/kg/injection, schedule: Q01DX005 (ip), vehicle: Klucel (hydroxypropylcellulose) (HPC)) was 95 % of control; the T/C (dose: 12.5 mg/kg/injection, schedule: Q01DX005 (ip), vehicle: Klucel (hydroxypropylcellulose) (HPC)) was 98 % of control; the T/C (dose: 25.0 mg/kg/injection, schedule: Q01DX005 (ip), vehicle: Klucel (hydroxypropylcellulose) (HPC)) is 98 % of control.
